{"source": "patent US20060160791A1", "about": "“Wood preservative formulations” (priority 1999, published 2006)", "system": "soft rot fungi belonging to the groups Ascomycotina and Deuteromycotina", "assay": "Soft rot soil burial test on treated beech blocks (similar to ENV-807, toxic limits per EN113)", "details": "for Toxic Limit Value: active ingredient retention, beech blocks, John Innes No. 2 compost, 14 weeks at 28° C, lower-upper limits spanning pass/fail (>3% mass loss); for Effective Retention of Tebuconazole: tebuconazole retention needed", "from_the_text": "The toxic limit value for a particular biocidal compound is the concentration of the compound which is required to prevent degradation (defined as >3% mass loss) of a substrate by a target organism. Toxic limits are normally expressed as two experimentally-determined concentrations that span the pass/fail point of the test. The toxic index is the midpoint of these two values.\nA convenient method of assessing the synergistic properties of a formulation is to use a ‘synergistic index’. This may be defined as: [formula]\nThe theoretical toxic index may be calculated by interpolation to the theoretical line of action. A SI of 1 indicates no synergism. As the SI increases, so the degree of synergism also increases.\nTesting was carried out to determine the performance of active ingredients alone and in mixture using a soft rot soil burial method.\nBeech (Fagus sylvatica) blocks measuring 5×5×30 mm were prepared from local grown, seasoned, knot-free sapwood. After oven drying and weighing, the blocks were vacuum impregnated (in groups of 6 replicates) with retentions of the test preservatives which had been freshly prepared using deionised water as the diluent.\nAfter treatment, the blocks were covered with polythene for a period of one week to reduce the drying rate and allow any fixation reactions to occur. They were then fully ventilated by standing on the laboratory bench for 2 weeks and allowed to dry.\nEach series of blocks was then exposed in John Innes (No. 2) compost, previously wetted to 110% of water holding capacity using deionised water. The test systems were then incubated for 14 weeks at 28° C.\nFollowing incubation, blocks were removed from the soil, gently rinsed in clean water and then oven dried and re-weighed.\nPreservative retention and weight change data were calculated for each block and the results expressed as toxic limit values according to the criteria laid down in the test method EN113.\nWhere the lower toxic limit value provides a weight loss of 10% m/m or greater, then the upper toxic limit value has been used to indicate the probable effective retention of preservative; this is in accordance with EN113.", "data": [{"compound": "[O-][S+]1CCON=C1c1cc2ccccc2s1", "note": "(stereo not shown) [Bethoxazin, 3-(benzo[b]thien-2-yl)-5,6-dihydro-1,4,2-oxathiazine 4-oxide]", "values": [{"measurement": "Toxic Limit Value", "result": ">0.77", "unit": "kgm^−3"}, {"measurement": "Effective Retention of Bethoxazin", "setting": "bethoxazin retention needed, alone or as part of the named mixture, EN113 conventions", "result": ">0.77", "unit": "kgm^−3"}]}, {"compound": "CCCC1COC(Cn2cncn2)(c2ccc(Cl)cc2Cl)O1", "note": "(stereo not shown) [Propiconazole, 1-[[2-(2-4-dichlorophenyl)-4-propyl-1,3-dioxolan-2-yl]methyl]-1H-1,2,4-triazole]", "values": [{"measurement": "Toxic Limit Value", "result": ">7.0", "unit": "kgm^−3"}, {"measurement": "Effective Retention of Propiconazole", "setting": "propiconazole retention needed, alone or as part of the named mixture, EN113 conventions", "result": ">7.0", "unit": "kgm^−3"}]}, {"compound": "CC(C1CC1)C(O)(Cn1cncn1)c1ccc(Cl)cc1", "note": "(stereo not drawn) [Cyproconazole, (2RS,3RS; 2RS,3SR)-2-(4-chlorophenyl)-3-cyclopropyl-1-(1H-1,2,4-triazol-1-yl)butan-2-ol]", "values": [{"measurement": "Effective Retention of Cyproconazole", "setting": "cyproconazole retention needed, alone or as part of the named mixture, EN113 conventions", "result": 1.25, "unit": "kgm^−3"}]}, {"compound": "N,N-didecyl-N-methyl-poly(oxyethyl)ammonium propionate [Bardap 26]", "values": [{"measurement": "Effective Retention of Bardap 26", "setting": "Bardap 26 retention needed, alone or as part of the named mixture, EN113 conventions", "result": ">6.2", "unit": "kgm^−3"}, {"measurement": "Toxic Limit Value", "result": ">6.2", "unit": "kgm^−3"}]}, {"compound": "CC(C)(C)C(O)(CCc1ccc(Cl)cc1)Cn1cncn1", "note": "(stereo not drawn) [Tebuconazole, alpha-[2-(4-chlorophenyl)ethyl]-alpha(1,1-dimethylethyl)-1H-1,2,4-triazole-1-ethanol]", "values": [{"measurement": "Toxic Limit Value", "result": ">7.0", "unit": "kgm^−3"}, {"measurement": "Effective Retention of Tebuconazole", "setting": "alone or as part of the named mixture, EN113 conventions", "result": ">7.0", "unit": "kgm^−3"}, {"measurement": "Effective Retention of Tebuconazole", "setting": "alone or as part of the named mixture, EN113 conventions, listed as tebuconazole", "result": "> 7", "unit": "kgm^−3"}]}]}
